The subject of one assay is male ICR mouse. The experiment in a line: Acetic acid-induced writhing test in mouse. The format is in vivo. As to conditions: Mus musculus, po, 1 h, at 10 po (method: 10 mg/kg oral, 1 hour before acetic acid); read-out: AA Writhing: Suppression ratio of Pain response. On the procedure:
2. Acetic Acid-Induced Writhing Test in Mouse
An acetic acid-induced writhing test is one of models for measuring an analgesic effect of drugs. A test material dissolved in a suitable vehicle was orally administered to a male ICR mouse weighing 30 to 35 g at an amount of 10 mg/kg. After 1 hour of the oral administration, […] of an aqueous 0.8% acetic acid solution was intraperitoneally injected into the male ICR mouse to induce the abdominal pain of the male ICR mouse. Right after the administration of acetic acid, the male ICR mouse was put into an empty cage, and the number of writhing behaviors of the mice was counted for 10 minutes. The term “writhing represents a reflex action in which the mouse overtly extends its abdomen by stretching its hind legs due to the abdominal pain. The analgesic effect of the test material is represented by the ‘suppression ratio of pain response’ {[(Writhing number of Vehicle-administered group−Writhing number of Test material-administered group)/(Writhing number of Vehicle-administered group)]×100%} or 50% of Effective amount (ED50 (median effective dose); an amount of test material that is required to suppress 50% of pain behaviors) of Test material. The ED50 (median effective dose) was determined by calculating the suppression ratio of pain response in at least three doses of test materials and subjecting to the linear regression.
On the technique in general: Writhing tests count abdominal constrictions after an irritant is injected.
Regarding `COc1ccc(N2CCN(CCC(OC(N)=O)c3ccc(C)cc3)CC2)cc1` (stereo not shown) [Example 56, Carbamic acid 3-[4-(4-methoxy-phenyl)-piperazin-1-yl]-1-p-tolyl-propyl ester], the inhibition in vivo at 10 mg/kg was found to be 93%.

On to `COc1ccc(N2CCN(CCC(OC(N)=O)c3cccc(C)c3)CC2)cc1` (stereo not shown) [Example 57, Carbamic acid 3-[4-(4-methoxy-phenyl)-piperazin-1-yl]-1-m-tolyl-propyl ester], for which the inhibition in vivo at 10 mg/kg amounted to 52%.

Turning to `COc1ccc(N2CCN(CCC(OC(N)=O)c3ccc(Cl)cc3Cl)CC2)cc1` (stereo not shown) [Example 58, Carbamic acid 1-(2,4-dichloro-phenyl)-3-[4-(4-methoxy-phenyl)-piperazin-1-yl]-propyl ester], the inhibition in vivo at 10 mg/kg was determined as 16%.

As to `COc1ccc(N2CCN(CCC(OC(N)=O)c3ccccc3C)CC2)cc1` (stereo not shown) [Example 59, Carbamic acid 3-[4-(4-methoxy-phenyl)-piperazin-1-yl]-1-o-tolyl-propyl ester], the inhibition in vivo at 10 mg/kg was determined as 48%.

For the compound `COc1ccc(N2CCN(CCC(OC(N)=O)c3ccc(C)cc3C)CC2)cc1` (stereo not shown) [Example 60, Carbamic acid 1-(2,4-dimethyl-phenyl)-3-[4-(4-methoxy-phenyl)-piperazin-1-yl]-propyl ester], the inhibition in vivo at 10 mg/kg was found to be 62%.

For the compound `COc1ccc(N2CCN(CCC(OC(N)=O)c3ccc(C)c(C)c3)CC2)cc1` (stereo not shown) [Example 61, Carbamic acid 1-(3,4-dimethyl-phenyl)-3-[4-(4-methoxy-phenyl)-piperazin-1-yl]-propyl ester], the inhibition in vivo at 10 mg/kg was 58%.

For the compound `COc1ccc(N2CCN(CCC(OC(N)=O)c3cc(C)ccc3C)CC2)cc1` (stereo not shown) [Example 62, Carbamic acid 1-(2,5-dimethyl-phenyl)-3-[4-(4-methoxy-phenyl)-piperazin-1-yl]-propyl ester], the inhibition in vivo at 10 mg/kg is 62%.

In the case of `COc1ccc(N2CCN(CCC(OC(N)=O)c3ccc(Cl)c(C(F)(F)F)c3)CC2)cc1` (stereo not shown) [Example 63, Carbamic acid 1-(4-chloro-3-trifluoromethyl-phenyl)-3-[4-(4-methoxy-phenyl)-piperazin-1-yl]-propyl ester], the inhibition in vivo at 10 mg/kg stood at 46%.

Turning to `COc1ccc(N2CCN(CCC(OC(N)=O)c3ccccc3[N+](=O)[O-])CC2)cc1` (stereo not shown) [Example 64, Carbamic acid 3-[4-(4-methoxy-phenyl)-piperazin-1-yl]-1-(2-nitro-phenyl)-propyl ester], the inhibition in vivo at 10 mg/kg is 59%.

As to `COc1ccc(N2CCN(CCC(OC(N)=O)c3cccc([N+](=O)[O-])c3)CC2)cc1` (stereo not shown) [Example 65, Carbamic acid 3-[4-(4-methoxy-phenyl)-piperazin-1-yl]-1-(3-nitro-phenyl)-propyl ester], the inhibition in vivo at 10 mg/kg turned out to be 39%.

In the case of `COc1ccc(N2CCN(CCC(OC(N)=O)c3ccc(C(F)(F)F)cc3)CC2)cc1` (stereo not shown) [Example 66, Carbamic acid 3-[4-(4-methoxy-phenyl)-piperazin-1-yl]-1-(4-trifluoromethyl-phenyl)-propyl ester], the inhibition in vivo at 10 mg/kg came out at 95%.

Regarding `COc1ccc(N2CCN(CCC(OC(N)=O)c3ccc4c(c3)OCO4)CC2)cc1` (stereo not shown) [Example 67], the inhibition in vivo at 10 mg/kg stood at 57%.

As to `COc1ccc(N2CCN(CCC(OC(N)=O)c3cccc(C(F)(F)F)c3)CC2)cc1` (stereo not shown) [Example 68, Carbamic acid 3-[4-(4-methoxy-phenyl)-piperazin-1-yl]-1-(3-trifluoromethyl-phenyl)-propyl ester], the inhibition in vivo at 10 mg/kg was determined as 48%.

`COc1ccc(N2CCN(CCC(OC(N)=O)c3ccc(Cl)c(Cl)c3)CC2)cc1` (stereo not shown) [Example 70, Carbamic acid 1-(3,4-dichloro-phenyl)-3-[4-(4-methoxy-phenyl)-piperazin-1-yl]-propyl ester]: the inhibition in vivo at 10 mg/kg was 51%.

Consider `COc1ccc(N2CCN(CCC(OC(N)=O)c3ccc(Cl)cc3)CC2)cc1` (stereo not shown) [Example 71, Carbamic acid 1-(4-chloro-phenyl)-3-[4-(4-methoxy-phenyl)-piperazin-1-yl]-propyl ester], for which the inhibition in vivo at 10 mg/kg is 61%.

Consider `NC(=O)OC(CCN1CCN(c2ccc(O)cc2)CC1)c1ccc(Cl)c(C(F)(F)F)c1` (stereo not shown) [Example 72, Carbamic acid 1-(4-chloro-3-trifluoromethyl-phenyl)-3-[4-(4-hydroxy-phenyl)-piperazin-1-yl]-propyl ester], for which the inhibition in vivo at 10 mg/kg turned out to be 53%.

`NC(=O)OC(CCN1CCN(c2ccc(O)cc2)CC1)c1ccc(Cl)c(Cl)c1` (stereo not shown) [Example 73, Carbamic acid 1-(3,4-dichloro-phenyl)-3-[4-(4-hydroxy-phenyl)-piperazin-1-yl]-propyl ester]: the inhibition in vivo at 10 mg/kg was 55%.

For `CCOc1ccccc1N1CCN(CCC(OC(N)=O)c2ccc(F)cc2)CC1` (stereo not shown) [Example 74, Carbamic acid 3-[4-(2-ethoxy-phenyl)-piperazin-1-yl]-1-(4-fluoro-phenyl)-propyl ester], the inhibition in vivo at 10 mg/kg turned out to be 44%.

Regarding `COc1ccc(Cl)cc1N1CCN(CCC(OC(N)=O)c2ccc(F)cc2)CC1` (stereo not shown) [Example 75, Carbamic acid 3-[4-(5-chloro-2-methoxy-phenyl)-piperazin-1-yl]-1-(4-fluoro-phenyl)-propyl ester], the inhibition in vivo at 10 mg/kg came to 14%.

Consider `NC(=O)OC(CCN1CCN(c2ccc(Cl)c(Cl)c2)CC1)c1ccc(F)cc1` (stereo not shown) [Example 76, Carbamic acid 3-[4-(3,4-dichloro-phenyl)-piperazin-1-yl]-1-(4-fluoro-phenyl)-propyl ester], for which the inhibition in vivo at 10 mg/kg amounted to 50%.

`COc1ccc(N2CCN(CC3CCc4ccccc4C3OC(N)=O)CC2)cc1` (stereo not shown) [Example 82, Carbamic acid 2-[4-(4-methoxy-phenyl)-piperazin-1-ylmethyl]-1,2,3,4-tetrahydro-naphthalen-1-yl ester]: the inhibition in vivo at 10 mg/kg came to 55%.

On to `NC(=O)OC(CCN1CCN(c2ccc(OCc3ccccc3)cc2)CC1)c1ccccc1` (stereo not shown) [Example 85, Carbamic acid 3-[4-(4-benzyloxyphenyl)-piperazin-1-yl]-1-phenyl-propyl ester], for which the inhibition in vivo at 10 mg/kg worked out at 58%.

With `NC(=O)OC(CCN1CCN(c2ccc(OC3CCCC3)cc2)CC1)c1ccccc1` (stereo not shown) [Example 87, Carbamic acid 3-[4-(4-cyclopentyloxy-phenyl)-piperazin-1-yl]-1-phenyl-propyl ester], the inhibition in vivo at 10 mg/kg is 58%.

With `CC(C)(C)C(=O)Oc1ccc(N2CCN(CCC(OC(N)=O)c3ccc(F)cc3)CC2)cc1` (stereo not shown) [Example 89, 1-(4-fluorophenyl)-3-(4-(4-(pivaloyloxy)phenyl)piperazin-1-yl)propyl carbamate], the inhibition in vivo at 10 mg/kg was found to be 63%.

As to `NC(=O)OC(CCN1CCN(c2ccc(OC(=O)OCc3ccccc3)cc2)CC1)c1ccc(F)cc1` (stereo not shown) [Example 91, Carbonic acid benzyl ester 4-{4-[3-carbamoyloxy-3-(4-fluoro-phenyl)-propyl]-piperazin-1-yl}-phenyl ester], the inhibition in vivo at 10 mg/kg came out at 45%.

For `COc1ccc(N2CC(C)N(CC[C@@H](OC(N)=O)c3ccccc3)C(C)C2)cc1` (stereo partly drawn) [Example 101, Carbamic acid (R)-3-[4-(4-methoxy-phenyl)-2,6-dimethyl-piperazin-1-yl]-1-phenyl-propyl ester], the inhibition in vivo at 10 mg/kg worked out at 48%.

The same assay, now with this note: Mus musculus; ip; unit not given (method doses in mg/kg); read-out: AA Writhing: ED50.
A word on the ED50: it is the midpoint of the dose-response relation. Regarding `CC(=O)Oc1ccc(N2CCN(CCC(OC(N)=O)c3ccc(F)cc3)CC2)cc1` (stereo not shown) [Example 92, Acetic acid 4-{4-[3-carbamoyloxy-3-(4-fluoro-phenyl)-propyl]-piperazin-1-yl}-phenyl ester], the ED50 came out at 0.22 mg/kg.

The assay is the same for the next values; noted with them: Mus musculus; po; unit not given (method doses in mg/kg); read-out: AA Writhing: ED50.
As to `COc1ccc(N2CCN(CCC(OC(N)=O)c3ccc(F)cc3)CC2)cc1` (stereo not shown) [Example 77, Carbamic acid 1-(4-fluoro-phenyl)-3-[4-(4-methoxy-phenyl)-piperazin-1-yl]-propyl ester], the ED50 worked out at 12.4 mg/kg.

For `CC(=O)Oc1ccc(N2CCN(CCC(OC(N)=O)c3ccccc3)CC2)cc1` (stereo not shown) [Example 86, Acetic acid 4-[4-(3-carbamoyloxy-3-phenyl-propyl)-piperazin-1-yl]-phenyl ester], the ED50 was found to be 7.52 mg/kg.

On to `NC(=O)OC(CCN1CCN(c2ccc(O)cc2)CC1)c1ccc(F)cc1` (stereo not shown) [Example 88, Carbamic acid 1-(4-fluoro-phenyl)-3-[4-(4-hydroxy-phenyl)-piperazin-1-yl]-propyl ester], for which the 50% effective dose (ED50) was 7.24 mg/kg.

As to `CCOC(=O)Oc1ccc(N2CCN(CCC(OC(N)=O)c3ccc(F)cc3)CC2)cc1` (stereo not shown) [Example 90, Carbonic acid 4-{4-[3-carbamoyloxy-3-(4-fluoro-phenyl)-propyl]-piperazin-1-yl}-phenyl ethyl ester], the ED50 amounted to 23.4 mg/kg.

As for `CC(=O)Oc1ccc(N2CCN(CCC(OC(N)=O)c3ccc(F)cc3)CC2)cc1` (stereo not shown) [Example 92, Acetic acid 4-{4-[3-carbamoyloxy-3-(4-fluoro-phenyl)-propyl]-piperazin-1-yl}-phenyl ester], the ED50 worked out at 5.66 mg/kg.

For the compound `NC(=O)O[C@H](CCN1CCN(c2ccc(O)cc2)CC1)c1ccccc1` [Example 105, (R)-carbamic acid 3-[4-(4-hydroxy-phenyl)-piperazin-1-yl]-1-phenyl-propyl ester], the ED50 was found to be 6.49 mg/kg.

The assay is the same for the next values; noted with them: at 10 po (method: 10 mg/kg oral, 1 hour before acetic acid).
As to `COc1ccc(N2CCN(CCC(OC(N)=O)c3ccccc3F)CC2)cc1` (stereo not shown) [Example 69, Carbamic acid 1-(2-fluoro-phenyl)-3-[4-(4-methoxy-phenyl)-piperazin-1-yl]-propyl ester], the “AA Writhing: Suppression ratio of Pain response” value was determined as 57%.

The record behind these values is US8815852B2, “Carbamoyloxy arylalkan arylpiperazine analgesics” (SK Biopharmaceuticals Co., Ltd., priority 2007, dated 2014).
